The text below walks through data of US6846843B2, “β-thioamino acids” (Gruenenthal GmbH, priority 2000, dated 2005).

The subject of one assay is gabapentin binding site. Nature of the assay: Gabapentin binding assay (displacement of gabapentin from its binding site). The following applies: for % Inhibition (Concn.): inhibition of gabapentin binding; for IC50: displacement of gabapentin, read-out: Affinity (IC50). As for the experimental part: Gabapentin is used in the binding assay in order to determine the binding and affinities of the selected compounds. The affinity of the compounds according to the invention is measured via the displacement of gabapentin from its binding site.

Assay [1] deals with formalin-induced nociception. Nature of the assay: Formalin test on mice (second phase). The following applies: mouse, second phase, read-out: Mouse Formalin Test ED50. In kind it is in vivo. As for the experimental part:
The investigations to determine the antinociceptive action of the compounds according to the invention were carried out by the formalin test on male albino mice (NMRI, 25-35 g, Iffa Credo, Belgium).
In the formalin test the first (early) phase (0-15 minutes after the formalin injection) and the second (late) phase (15-60 minutes after the formalin injection) differ (D. Dubuisson et al., Pain, Vol. 4, pp. 161-174 (1977)). The early phase, being a direct reaction to the formalin injection, constitutes a model for acute pain, whereas the late phase is regarded as a model for persistent (chronic or inflammatory) pain (T. J. Coderre et al., Pain, Vol. 52, pp. 259-285 (1993)).
The compounds according to the invention were investigated in the second phase of the formalin test in order to obtain information on the effects of substances in chronic/inflammatory pain.
By means of a single subcutaneous formalin injection (20 μl, 1% aqueous solution) into the dorsal side of the right-hand rear paw, a nociceptive reaction was induced in unconstrained experimental animals, manifested in a noticeable licking and biting of the affected paw. The nociceptive behavior during the investigation period in the second (late) phase of the formalin test was continuously monitored by observing the animals. The pain reaction was quantified by totalling the time in seconds during which the animals continued to lick and bite the affected paw during the investigation period. After injecting substances that have an antinociceptive effect in the formalin test, the aforedescribed behavior pattern of the animals is reduced or possibly even eliminated. Corresponding to the substance tests, in which the animals had been injected with the test substance before formalin, the control animals were injected with a vehicle, i.e. solvent (e.g. 0.9% NaCl solution) before the formalin injection. The behavior of the animals after administration of the substance (n=10 per substance dose) was compared with a control group (n=10).
Based on the quantification of the pain reaction, the effect of the substance in the formalin test was determined as the change in the control in percentage terms. The ED50 calculations were carried out by means of regression analysis. The application time before the formalin injection (intraperitoneally: 15 minutes, intravenously: 5 minutes) was chosen depending on the type of application of the compounds according to the invention.

Broadly, the IC50 is the concentration needed to halve the response being measured. The term ED50 denotes the dose that gives a 50% effect, or the effect in half of the subjects.

The structures appear in SMILES notation. Counter-ions that a name gives are not always drawn. Like-named read-outs stand apart in the source and are kept apart here.

As to `Cl.NC(C(=O)O)C1(S)CCSCC1` (racemic) [Compound 35, rac-amino-(4-mercaptotetrahydrothiopyran-4-yl)ethanoic acid hydrochloride], in the assay with gabapentin binding site, the “% Inhibition (Concn.)” value was 84% (10^−5 μm). With `CCCC(S)(CCC)C(N)C(=O)O` (racemic) [Compound 17, rac-2-amino-3-mercapto-3-propyl-3-hexanoic acid hydrochloride], at gabapentin binding site, the 50% inhibitory concentration (IC50) was determined as 2350 nM. As for `CCCCCCC(C)(SCc1ccccc1)C(N)C(=O)O` (racemic) [Compound 22, rac-2-amino-3-benzylsulfanyl-3-methyl-nonanoic acid hydrochloride], the IC50 at gabapentin binding site was found to be 336 nM. Regarding `Cl.NC(C(=O)O)C1(S)CCCCCC1` (racemic) [Compound 18, rac-amino-(1-mercaptocycloheptyl)acetic acid hydrochloride], in the assay on gabapentin binding site, the “% Inhibition (Concn.)” value was 15% (10^−5 μm). Turning to `NC(C(=O)O)C1(S)CCCCC1` (racemic) [Compound 31, rac-amino-(1-mercaptocyclohexyl)ethanoic acid hydrochloride], the concentration for half-maximal inhibition (IC50) on gabapentin binding site was 187 nM. In the case of `CCCCCCCC(C)(S)C(N)C(=O)O.Cl` (racemic) [Compound 10, rac-threo-2-amino-3-mercapto-3-methyldecanoic acid hydrochloride], the ED50 in assay [1] (ip, i.p.) came out at 105 mg/kg. Besides, on gabapentin binding site (hydrochloride), the 50% inhibitory concentration (IC50) is 150 nM. Take `CCCCC(S)(CC)C(N)C(=O)O` (racemic) [Compound 30, rac-2-amino-3-ethyl-3-mercaptoheptanoic acid hydrochloride]: the IC50 on gabapentin binding site is 314 nM. Consider `CCCCCC(C)(SCC)C(N)C(=O)O.Cl` (racemic) [Compound 15, rac-2-amino-3-ethylsulfanyl-3-methyloctanoic acid hydrochloride], for which the “% Inhibition (Concn.)” value in the assay on gabapentin binding site is given as 92% (10^−5 μm).

For `CC(S)(C1CCCCC1)C(N)C(=O)O` (racemic) [Compound 28, rac-2-amino-3-cyclohexyl-3-mercaptobutanoic acid hydrochloride], the half-inhibitory concentration (IC50) at gabapentin binding site amounted to 1320 nM. For `CCCC(C)(S)C(N)C(=O)O.Cl` (racemic) [Compound 2, rac-2-amino-3-mercapto-3-methylhexanoic acid hydrochloride], the ED50 in assay [1] (iv, i.v.) came to 158 mg/kg. Moreover, the IC50 on gabapentin binding site was found to be 165 nM. In the case of `CC(C)C(C)(S)C(N)C(=O)O.Cl` (racemic) [Compound 36, rac-2-amino-3-mercapto-3,4-dimethylpentanoic acid hydrochloride], the “% Inhibition (Concn.)” value in the assay with gabapentin binding site is reported as 88% (10^−5 μm). With `CCC(C)C(C)(S)C(N)C(=O)O` (racemic) [Compound 37, rac-2-amino-3-mercapto-3,4-dimethylhexanoic acid hydrochloride], at gabapentin binding site, the IC50 was 196 nM. Turning to `CC(S)(c1cccs1)C(N)C(=O)O.Cl` (racemic) [Compound 29, rac-2-amino-3-mercapto-3-thiophen-2-yl-butanoic acid hydrochloride], the “% Inhibition (Concn.)” value with gabapentin binding site is reported as 30% (10^−5 μm). On to `CCCCC(C)(S)C(N)C(=O)O.Cl` (racemic) [Compound 3, rac-2-amino-3-mercapto-3-methylheptanoic acid hydrochloride], for which, on gabapentin binding site, the IC50 was 280 nM and the “% Inhibition (Concn.)” value was 99.7%.

As for `CCCCCCCC(C)(SCc1ccccc1)C(N)C(=O)O.Cl` (racemic) [Compound 23, rac-2-amino-3-benzylsulfanyl-3-methyldecanoic acid hydrochloride], in the assay with gabapentin binding site, the “% Inhibition (Concn.)” value is 91% (10^−5 μm). Regarding `CC1CCCCC1(S)C(N)C(=O)O` (racemic) [Compound 33, rac-amino-(1-mercapto-2-methylcyclohexyl)ethanoic acid hydrochloride], the IC50 on gabapentin binding site was found to be 528 nM. Turning to `CCCCCC(C)(S)C(N)C(=O)O` (racemic) [Compound 14, rac-threo-2-amino-3-mercapto-3-methyloctanoic acid hydrochloride], on gabapentin binding site (hydrochloride), the IC50 turned out to be 100 nM. Same read-out and setting: under `CCCCCCC(C)(S)C(N)C(=O)O` (racemic) [Compound 13, rac-erythro-2-amino-3-mercapto-3-methylnonanoic acid hydrochloride] stands 30 nM. `CCCCCCC(C)(SCC)C(N)C(=O)O` (racemic) [Compound 19, rac-2-amino-3-ethylsulfanyl-3-methylnonanoic acid hydrochloride]: on gabapentin binding site, the IC50 is 271 nM. In the case of `CCCCCCSC(C)(CCCCCC)C(N)C(=O)O` (racemic) [Compound 21, rac-2-amino-3-hexylsulfanyl-3-methylnonanoic acid hydrochloride], on gabapentin binding site, the half-inhibitory concentration (IC50) was found to be 12400 nM. Regarding `CCCCCCCC(C)(S)C(N)C(=O)O` (racemic) [Compound 11, rac-erythro-2-amino-3-mercapto-3-methyldecanoic acid hydrochloride], the IC50 on gabapentin binding site (hydrochloride) worked out at 120 nM. Regarding `Cl.NC(C(=O)O)C(S)(c1ccc(F)cc1)C1CC1` (racemic) [Compound 25, rac-2-amino-3-cyclopropyl-3-(4-fluorophenyl)-3-mercapto-propionic acid hydrochloride], the “% Inhibition (Concn.)” value with gabapentin binding site was 40% (10^−5 μm). As to `CCC(C)(S)C(N)C(=O)O` (racemic) [Compound 1, rac-2-amino-3-mercapto-3-methylpentanoic acid hydrochloride], at gabapentin binding site, the IC50 amounted to 268 nM.

Consider `CCCC(S)(CC)C(N)C(=O)O.Cl` (racemic) [Compound 9, rac-amino-3-ethyl-3-mercaptohexanoic acid hydrochloride], for which, at gabapentin binding site, the half-inhibitory concentration (IC50) came to 339 nM and the “% Inhibition (Concn.)” value is 97.5%. Take `CC(S)(C1CC1)C(N)C(=O)O` (racemic) [Compound 26, rac-2-amino-3-cyclopropyl-3-mercaptobutanoic acid hydrochloride]: the IC50 at gabapentin binding site amounted to 703 nM. `CCCCCCCC(C)(SCC)C(N)C(=O)O.Cl` (racemic) [Compound 24, rac-2-amino-3-ethylsulfanyl-3-methyldecanoic acid hydrochloride]: the “% Inhibition (Concn.)” value in the assay on gabapentin binding site is on record as 90% (10^−5 μm).

Regarding `CCC(S)(CC)C(N)C(=O)O` (racemic) [Compound 7, rac-2-amino-3-ethyl-3-mercaptopentanoic acid hydrochloride], the concentration for half-maximal inhibition (IC50) at gabapentin binding site was found to be 258 nM.

With `CC1CCCC(S)(C(N)C(=O)O)C1` (racemic) [Compound 32, rac-amino-(1-mercapto-3-methylcyclohexyl)ethanoic acid hydrochloride], the IC50 on gabapentin binding site was 223 nM. As for `CCCCCCC(C)(S)C(N)C(=O)O.Cl` (racemic) [Compound 5, rac-2-amino-3-mercapto-3-methylnonanoic acid hydrochloride], in assay [1] (ip, i.p.), the ED50 was found to be 54 mg/kg. Moreover, at gabapentin binding site (hydrochloride), the IC50 was found to be 70 nM. Regarding `CC1CCC(S)(C(N)C(=O)O)CC1` (racemic) [Compound 34, rac-amino-(1-mercapto-4-methylcyclohexyl)ethanoic acid hydrochloride], at gabapentin binding site, the IC50 was found to be 1000 nM. As to `CCCCCCC(C)(SCCC)C(N)C(=O)O` (racemic) [Compound 20, rac-2-amino-3-methyl-3-propylsulfanylnonanoic acid hydrochloride], the IC50 on gabapentin binding site amounted to 3050 nM. In the case of `CC(S)(C1CCC1)C(N)C(=O)O` (racemic) [Compound 27, rac-2-amino-3-cyclobutyl-3-mercapto-butanoic acid hydrochloride], the IC50 on gabapentin binding site turned out to be 589 nM. For the molecule `CCCCCC(C)(SCc1ccccc1)C(N)C(=O)O` (racemic) [Compound 16, rac-threo-2-amino-3-benzylsulfanyl-3-methyl-octanoic acid hydrochloride], on gabapentin binding site, the IC50 turned out to be 1800 nM and the “% Inhibition (Concn.)” value was found to be 93%. For the molecule `CCCCCCC(C)(S)C(N)C(=O)O` (racemic) [Compound 12, rac-threo-2-amino-3-mercapto-3-methylnonanoic acid hydrochloride], the ED50 in assay [1] (ip, i.p.) turned out to be 78 mg/kg. Besides, the IC50 on gabapentin binding site (hydrochloride) is 70 nM.
